Assay results taken from patent US20210315826A1, “NATURAL FLUORESCENT POLYDEDRAL AMINO ACID CRYSTALS FOR EFFICIENT ENTRAPMENT AND SYSTEMIC DELIVERY OF HYDROPHOBIC SMALL MOLECULES” (CORNELL UNIVERSITY, priority 2018, published 2021).

Assay: Entrapment efficiency of small molecules in L-His crystals (HPLC of supernatant)
Format: physicochemical
Conditions: within L-His crystals; determined by HPLC
Experimental: A 30 mg/mL solution of L-His (>99%, Sigma-Aldrich) was prepared by dissolving L-His powder in milli-Q water using a vortex mixer at ambient temperature in a Corning® 15 mL centrifuge tube with a closed cap. Then 500 μL of the aqueous solution of L-His and 500 μL of 200 proof ethanol (KOPTEC, PA, US) was added to 200 μL of the small molecule solution (2 mg/mL). The small molecules used in this study were Nile red (>98%, Sigma-Aldrich), pyrene (>98%, Sigma-Aldrich), β-carotene (>97%, Sigma-Aldrich), and doxorubicin HCl (DOX, >98%, Fluka, Mexico City, Mexico). The solution was vortexed for 15 seconds and kept static at ambient temperature. After 3 hours, crystals were collected and washed with ethanol to remove the free small molecules from the surface of the crystals and the supernatant was collected to measure the concentration of non-entrapped small molecules using HPLC. […] Each individual sample of small molecules was quantified based on an optimized method reported in the literature for β-carotene (Etzbach et al., “Characterization of Carotenoid Profiles in Goldenberry (Physalis peruviana L.) Fruits at Various Ripening Stages and in Different Plant Tissues by HPLC-DAD-APCI-MS^n,” Food Chem. 245:508-517 (2018), which is hereby incorporated by reference in its entirety), Nile red (Wu et al., “Drug Delivery to the Skin from Sub-Micron Polymeric Particle Formulations: Influence of Particle Size and Polymer Hydrophobicity,” Pharm Res. 26(8):1995-2001 (2009), which is hereby incorporated by reference in its entirety), pyrene (Jia et al., “Effect of Root Exudates on the Mobility of Pyrene in Mangrove Sediment-Water System,” Catena 162:396-401 (2017), which is hereby incorporated by reference in its entirety), and DOX (Chi et al., “Redox-Sensitive and Hyaluronic Acid Functionalized Liposomes for Cytoplasmic Drug Delivery to Osteosarcoma in Animal Models,” J. Control Release 261:113-125 (2017), which is hereby incorporated by reference in its entirety). […]

Compound | Entrapment efficiency
c1cc2ccc3cccc4ccc(c1)c2c34 [pyrene] | 87%
CCN(CC)c1ccc2nc3c4ccccc4c(=O)cc-3oc2c1 [Nile red] | 62%
CC1=C(/C=C/C(C)=C/C=C/C(C)=C/C=C/C=C(C)/C=C/C=C(C)/C=C/C2=C(C)CCCC2(C)C)C(C)(C)CCC1 [β-carotene] | ~96%
